Positions of bridges follow the written chain, without caps; N, C: chain ends. Non-standard residues stand in square brackets, D forms with d. Residues, ends and D or L forms follow the SMILES beside them. Groups on a side chain read outwards from the residue. *: point of attachment. Pent4ynoyl = C#CCCC(=O)*; Pra = C#CC[C@H](N)C(=O)O; Abu = CC[C@H](N)C(=O)O
What was measured:
Assay in all cases: cell-based
hNav1.7 = hNav1.7 (Homo sapiens, UniProt Q15858); type: cell-based; details: IonWorks Quattro, use-dependent block, hNav1.7; read-out: IWQ Use Nav1.7
Sequence of hNav1.7 (Q15858 whole entry, looked up): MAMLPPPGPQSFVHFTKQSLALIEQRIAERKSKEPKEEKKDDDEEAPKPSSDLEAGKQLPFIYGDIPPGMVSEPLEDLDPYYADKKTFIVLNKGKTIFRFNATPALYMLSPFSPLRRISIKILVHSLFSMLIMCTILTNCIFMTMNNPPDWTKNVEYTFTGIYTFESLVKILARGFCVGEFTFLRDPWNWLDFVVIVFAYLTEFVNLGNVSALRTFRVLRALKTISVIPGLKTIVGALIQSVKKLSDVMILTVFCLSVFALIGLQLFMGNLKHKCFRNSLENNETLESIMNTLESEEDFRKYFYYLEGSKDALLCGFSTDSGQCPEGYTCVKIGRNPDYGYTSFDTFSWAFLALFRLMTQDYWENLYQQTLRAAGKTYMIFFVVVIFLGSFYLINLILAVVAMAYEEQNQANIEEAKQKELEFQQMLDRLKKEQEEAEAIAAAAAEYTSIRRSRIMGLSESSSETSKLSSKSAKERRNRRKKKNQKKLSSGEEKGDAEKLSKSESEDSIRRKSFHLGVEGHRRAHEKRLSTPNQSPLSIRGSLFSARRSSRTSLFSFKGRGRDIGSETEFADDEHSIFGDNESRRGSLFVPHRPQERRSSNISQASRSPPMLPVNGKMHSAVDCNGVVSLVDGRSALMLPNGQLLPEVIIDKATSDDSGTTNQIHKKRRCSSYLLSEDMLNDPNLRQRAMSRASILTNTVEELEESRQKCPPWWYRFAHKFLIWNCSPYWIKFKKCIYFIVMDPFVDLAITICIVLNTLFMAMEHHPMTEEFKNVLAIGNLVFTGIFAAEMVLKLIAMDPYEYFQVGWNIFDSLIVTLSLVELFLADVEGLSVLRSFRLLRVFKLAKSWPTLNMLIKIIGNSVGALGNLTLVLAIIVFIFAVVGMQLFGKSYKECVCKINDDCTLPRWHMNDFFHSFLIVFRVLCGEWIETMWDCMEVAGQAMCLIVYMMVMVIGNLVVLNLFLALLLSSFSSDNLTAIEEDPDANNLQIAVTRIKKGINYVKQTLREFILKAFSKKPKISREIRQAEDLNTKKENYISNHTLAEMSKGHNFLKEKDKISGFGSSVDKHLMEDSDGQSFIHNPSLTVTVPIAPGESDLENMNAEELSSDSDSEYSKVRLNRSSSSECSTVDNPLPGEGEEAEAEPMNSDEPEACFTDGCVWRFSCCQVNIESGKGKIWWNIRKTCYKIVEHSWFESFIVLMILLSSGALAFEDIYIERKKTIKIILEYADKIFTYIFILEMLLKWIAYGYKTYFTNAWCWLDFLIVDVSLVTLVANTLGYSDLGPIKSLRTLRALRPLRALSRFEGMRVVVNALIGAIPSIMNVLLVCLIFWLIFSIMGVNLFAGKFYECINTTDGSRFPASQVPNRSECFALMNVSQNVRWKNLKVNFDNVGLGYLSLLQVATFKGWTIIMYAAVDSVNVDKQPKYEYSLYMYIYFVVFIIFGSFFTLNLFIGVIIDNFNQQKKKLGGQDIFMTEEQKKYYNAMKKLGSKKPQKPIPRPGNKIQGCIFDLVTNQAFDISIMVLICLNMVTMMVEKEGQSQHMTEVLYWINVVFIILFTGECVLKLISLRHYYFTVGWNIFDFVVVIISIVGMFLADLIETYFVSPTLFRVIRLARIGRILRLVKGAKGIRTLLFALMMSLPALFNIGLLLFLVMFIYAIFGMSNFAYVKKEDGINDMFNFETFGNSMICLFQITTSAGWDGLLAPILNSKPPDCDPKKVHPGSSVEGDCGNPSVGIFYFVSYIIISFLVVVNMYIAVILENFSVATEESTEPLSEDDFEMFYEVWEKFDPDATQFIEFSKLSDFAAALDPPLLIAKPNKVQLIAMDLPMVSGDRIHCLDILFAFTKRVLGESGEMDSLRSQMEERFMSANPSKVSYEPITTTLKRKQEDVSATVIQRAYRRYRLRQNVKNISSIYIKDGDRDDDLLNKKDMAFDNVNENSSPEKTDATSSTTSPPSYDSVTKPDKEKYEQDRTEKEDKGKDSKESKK

hNav1.5 = hNav1.5 (Homo sapiens, UniProt Q14524); details: IonWorks Quattro, use-dependent block, hNav1.5; read-out: IWQ Use Nav1.5
hNav1.3 = hNav1.3 (Homo sapiens, UniProt Q9NY46); details: IonWorks Quattro, use-dependent block, hNav1.3; read-out: IWQ Use Nav1.3
Sequence of hNav1.3 (Q9NY46 whole entry, looked up): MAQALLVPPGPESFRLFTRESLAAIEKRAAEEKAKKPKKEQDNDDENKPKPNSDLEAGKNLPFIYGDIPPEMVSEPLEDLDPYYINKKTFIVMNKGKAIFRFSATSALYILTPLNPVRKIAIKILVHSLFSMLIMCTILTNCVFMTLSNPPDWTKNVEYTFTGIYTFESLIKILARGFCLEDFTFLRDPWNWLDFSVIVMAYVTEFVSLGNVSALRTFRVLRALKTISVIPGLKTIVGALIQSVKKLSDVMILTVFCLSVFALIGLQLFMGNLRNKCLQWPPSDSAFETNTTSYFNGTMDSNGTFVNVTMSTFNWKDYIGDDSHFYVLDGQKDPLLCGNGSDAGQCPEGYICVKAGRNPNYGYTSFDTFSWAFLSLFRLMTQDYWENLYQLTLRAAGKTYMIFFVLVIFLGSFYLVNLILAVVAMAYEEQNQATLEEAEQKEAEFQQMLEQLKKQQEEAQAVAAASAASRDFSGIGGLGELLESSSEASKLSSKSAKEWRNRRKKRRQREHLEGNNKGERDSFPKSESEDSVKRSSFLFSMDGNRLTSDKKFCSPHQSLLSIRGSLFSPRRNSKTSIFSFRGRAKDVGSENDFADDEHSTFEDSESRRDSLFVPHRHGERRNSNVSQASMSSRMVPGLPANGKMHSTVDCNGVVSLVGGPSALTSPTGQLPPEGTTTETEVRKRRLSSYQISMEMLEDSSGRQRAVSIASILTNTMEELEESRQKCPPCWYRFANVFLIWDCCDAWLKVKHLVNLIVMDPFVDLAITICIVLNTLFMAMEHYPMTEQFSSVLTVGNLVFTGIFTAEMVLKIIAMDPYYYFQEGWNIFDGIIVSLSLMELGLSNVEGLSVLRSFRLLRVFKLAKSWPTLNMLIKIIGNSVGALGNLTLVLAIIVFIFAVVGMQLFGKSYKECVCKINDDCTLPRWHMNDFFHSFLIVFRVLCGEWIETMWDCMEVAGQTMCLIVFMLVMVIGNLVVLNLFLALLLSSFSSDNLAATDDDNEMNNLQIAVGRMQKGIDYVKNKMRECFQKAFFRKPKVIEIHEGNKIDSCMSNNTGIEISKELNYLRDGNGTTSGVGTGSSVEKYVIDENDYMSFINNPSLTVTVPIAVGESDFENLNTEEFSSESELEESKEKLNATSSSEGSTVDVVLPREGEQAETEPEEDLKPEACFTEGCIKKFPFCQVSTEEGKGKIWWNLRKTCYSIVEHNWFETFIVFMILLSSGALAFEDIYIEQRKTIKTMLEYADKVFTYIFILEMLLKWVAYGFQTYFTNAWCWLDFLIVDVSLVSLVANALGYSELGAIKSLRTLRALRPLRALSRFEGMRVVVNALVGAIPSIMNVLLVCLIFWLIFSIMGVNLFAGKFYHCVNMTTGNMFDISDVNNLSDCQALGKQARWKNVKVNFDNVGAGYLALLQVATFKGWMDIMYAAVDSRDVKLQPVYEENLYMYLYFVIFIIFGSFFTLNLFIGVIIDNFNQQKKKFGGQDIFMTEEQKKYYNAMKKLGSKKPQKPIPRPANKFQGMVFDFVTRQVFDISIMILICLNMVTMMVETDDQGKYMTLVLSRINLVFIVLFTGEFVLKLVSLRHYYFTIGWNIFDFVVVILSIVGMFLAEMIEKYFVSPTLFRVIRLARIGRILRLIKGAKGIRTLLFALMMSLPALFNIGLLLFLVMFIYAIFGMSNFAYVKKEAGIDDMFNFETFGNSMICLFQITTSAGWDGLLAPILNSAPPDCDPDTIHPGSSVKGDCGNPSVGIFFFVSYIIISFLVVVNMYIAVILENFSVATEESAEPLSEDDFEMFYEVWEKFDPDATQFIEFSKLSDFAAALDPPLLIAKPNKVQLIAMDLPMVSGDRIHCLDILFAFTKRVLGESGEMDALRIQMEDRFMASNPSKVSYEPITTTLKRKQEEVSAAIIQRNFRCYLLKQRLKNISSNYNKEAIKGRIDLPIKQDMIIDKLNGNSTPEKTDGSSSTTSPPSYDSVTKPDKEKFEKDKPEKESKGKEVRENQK

C#CC[C@H](NC(C)=O)C(=O)NCCCC[C@@H]1NC(=O)[C@H](CC(=O)O)NC(=O)[C@@H]2CCCN2C(=O)[C@H]([C@@H](C)CC)NC(=O)[C@@H]2CSSC[C@@H]3NC(=O)[C@H](C(C)C)NC(=O)[C@H](CC(C)C)NC(=O)[C@H](CC(N)=O)NC(=O)[C@@H]4CCCN4C(=O)[C@H](CCCNC(=N)N)NC(=O)[C@H](CSSC[C@H](NC(=O)[C@@H](N)CC(=O)O)C(=O)N[C@@H](CC(C)C)C(=O)NCC(=O)N[C@@H](C)C(=O)N[C@@H](Cc4ccccc4)C(=O)N[C@@H](CCCNC(=N)N)C(=O)N[C@@H](CCCCN)C(=O)N2)NC(=O)[C@H](CSSC[C@@H](C(=O)N[C@@H](CCCCN)C(=O)N[C@@H](Cc2ccc(O)cc2)C(=O)N[C@H](C(=O)N[C@@H](Cc2ccccc2)C(N)=O)C(C)C)NC(=O)[C@H](Cc2c[nH]c4ccccc24)NC(=O)[C@H](CCCCN)NC(=O)[C@H](Cc2c[nH]cn2)NC(=O)[C@H]([C@@H](C)O)NC(=O)[C@H](CCCNC(=N)N)NC(=O)[C@H](CO)NC3=O)NC(=O)[C@H](CCCCN)NC(=O)[C@H](CC(=O)O)NC1=O [compound 794] (H-DCLGAFRKCIPDK([Pra-Ac])DKCCRPNLVCSRTHKWCKYVF-NH2; disulfide 2-17, 9-23, 16-30)
IC50 (hNav1.7): 0.89 µM
IC50 (hNav1.5): 37.8 µM
IC50 (hNav1.3): 0.7 µM

C#CC[C@@H]1NC(=O)[C@H](CC(=O)O)NC(=O)[C@@H]2CCCN2C(=O)[C@H]([C@@H](C)CC)NC(=O)[C@@H]2CSSC[C@@H]3NC(=O)[C@H](C(C)C)NC(=O)[C@H](CC(C)C)NC(=O)[C@H](CC(N)=O)NC(=O)[C@@H]4CCCN4C(=O)[C@H](CCCNC(=N)N)NC(=O)[C@H](CSSC[C@H](NC(=O)[C@@H](N)CC(=O)O)C(=O)N[C@@H](CC(C)C)C(=O)NCC(=O)N[C@@H](C)C(=O)N[C@@H](CC(C)C)C(=O)N[C@@H](CCCNC(=N)N)C(=O)N[C@@H](CCCCN)C(=O)N2)NC(=O)[C@H](CSSC[C@@H](C(=O)N[C@@H](CCCCN)C(=O)N[C@@H](Cc2ccc(O)cc2)C(=O)N[C@H](C(=O)N[C@@H](Cc2ccccc2)C(N)=O)C(C)C)NC(=O)[C@H](Cc2c[nH]c4ccccc24)NC(=O)[C@H](CCCNC(=N)N)NC(=O)[C@H](Cc2c[nH]cn2)NC(=O)[C@H](CC(C)C)NC(=O)[C@H](CCCNC(=N)N)NC(=O)[C@H](CO)NC3=O)NC(=O)[C@H](CCCCN)NC(=O)[C@H](CC(=O)O)NC1=O [compound 796] (H-DCLGALRKCIPD[Pra]DKCCRPNLVCSRLHRWCKYVF-NH2; disulfide 2-17, 9-23, 16-30)
IC50 (hNav1.7): 0.22 µM
IC50 (hNav1.5): 36.4 µM
IC50 (hNav1.3): 0.48 µM

C#CC[C@@H]1NC(=O)[C@H](CC(=O)O)NC(=O)[C@@H]2CCCN2C(=O)[C@H]([C@@H](C)CC)NC(=O)[C@@H]2CSSC[C@@H]3NC(=O)[C@H](C(C)C)NC(=O)[C@H](CC(C)C)NC(=O)[C@H](CC(N)=O)NC(=O)[C@@H]4CCCN4C(=O)[C@H](CCCNC(=N)N)NC(=O)[C@H](CSSC[C@H](NC(=O)[C@@H](N)CC(=O)O)C(=O)N[C@@H](CC(C)C)C(=O)NCC(=O)N[C@@H](CC)C(=O)N[C@@H](CC(C)C)C(=O)N[C@@H](CCCNC(=N)N)C(=O)N[C@@H](CCCCN)C(=O)N2)NC(=O)[C@H](CSSC[C@@H](C(=O)N[C@@H](CCCCN)C(=O)N[C@@H](Cc2ccc(O)cc2)C(=O)N[C@H](C(=O)N[C@@H](Cc2ccccc2)C(N)=O)C(C)C)NC(=O)[C@H](Cc2c[nH]c4ccccc24)NC(=O)[C@H](CCCCN)NC(=O)[C@H](Cc2c[nH]cn2)NC(=O)[C@H]([C@@H](C)O)NC(=O)[C@H](CCCNC(=N)N)NC(=O)[C@H](CO)NC3=O)NC(=O)[C@H](CCCCN)NC(=O)[C@H](CC(=O)O)NC1=O [compound 797] (H-DCLG[Abu]LRKCIPD[Pra]DKCCRPNLVCSRTHKWCKYVF-NH2; disulfide 2-17, 9-23, 16-30)
IC50 (hNav1.7): 0.52 µM
IC50 (hNav1.5): 34 µM
IC50 (hNav1.3): 0.93 µM

C#CC[C@@H]1NC(=O)[C@H](CC(=O)O)NC(=O)[C@@H]2CCCN2C(=O)[C@H](CCC(=O)O)NC(=O)[C@@H]2CSSC[C@@H]3NC(=O)[C@H](C(C)C)NC(=O)[C@H](CC(C)C)NC(=O)[C@H](CC(N)=O)NC(=O)[C@@H]4CCCN4C(=O)[C@H](CCCNC(=N)N)NC(=O)[C@H](CSSC[C@H](NC(=O)[C@@H](N)CC(=O)O)C(=O)N[C@@H](CC(C)C)C(=O)NCC(=O)N[C@@H](C)C(=O)N[C@@H](Cc4ccccc4)C(=O)N[C@@H](CCCNC(=N)N)C(=O)N[C@@H](CCCCN)C(=O)N2)NC(=O)[C@H](CSSC[C@@H](C(=O)N[C@@H](CCCCN)C(=O)N[C@@H](Cc2ccc(O)cc2)C(=O)N[C@H](C(=O)N[C@@H](Cc2ccccc2)C(N)=O)C(C)C)NC(=O)[C@H](Cc2c[nH]c4ccccc24)NC(=O)[C@H](CCCNC(=N)N)NC(=O)[C@H](Cc2c[nH]cn2)NC(=O)[C@H](CC(C)C)NC(=O)[C@H](CCCNC(=N)N)NC(=O)[C@H](CO)NC3=O)NC(=O)[C@H](CCCCN)NC(=O)[C@H](CC(=O)O)NC1=O [compound 798] (H-DCLGAFRKCEPD[Pra]DKCCRPNLVCSRLHRWCKYVF-NH2; disulfide 2-17, 9-23, 16-30)
IC50 (hNav1.7): 0.54 µM
IC50 (hNav1.5): 32.2 µM
IC50 (hNav1.3): 0.56 µM

C#CC[C@H](NC(C)=O)C(=O)NCCCC[C@@H]1NC(=O)[C@H](CC(=O)O)NC(=O)[C@@H]2CCCN2C(=O)[C@H]([C@@H](C)CC)NC(=O)[C@@H]2CSSC[C@@H]3NC(=O)[C@H](C(C)C)NC(=O)[C@H](CC(C)C)NC(=O)[C@H](CC(N)=O)NC(=O)[C@@H]4CCCN4C(=O)[C@H](CCCNC(=N)N)NC(=O)[C@H](CSSC[C@H](NC(=O)[C@@H](N)CC(=O)O)C(=O)N[C@@H](CC(C)C)C(=O)NCC(=O)N[C@@H](CC)C(=O)N[C@@H](CC(C)C)C(=O)N[C@@H](CCCNC(=N)N)C(=O)N[C@@H](CCCCN)C(=O)N2)NC(=O)[C@H](CSSC[C@@H](C(=O)N[C@@H](CCCCN)C(=O)N[C@@H](Cc2ccc(O)cc2)C(=O)N[C@H](C(=O)N[C@@H](Cc2ccccc2)C(N)=O)C(C)C)NC(=O)[C@H](Cc2c[nH]c4ccccc24)NC(=O)[C@H](CCCCN)NC(=O)[C@H](Cc2c[nH]cn2)NC(=O)[C@H]([C@@H](C)O)NC(=O)[C@H](CCCNC(=N)N)NC(=O)[C@H](CO)NC3=O)NC(=O)[C@H](CCCCN)NC(=O)[C@H](CC(=O)O)NC1=O [compound 799] (H-DCLG[Abu]LRKCIPDK([Pra-Ac])DKCCRPNLVCSRTHKWCKYVF-NH2; disulfide 2-17, 9-23, 16-30)
IC50 (hNav1.7): 0.75 µM
IC50 (hNav1.5): 28.1 µM
IC50 (hNav1.3): 0.7 µM

C#CCCC(=O)NCCCC[C@@H]1NC(=O)[C@H](CC(=O)O)NC(=O)[C@@H]2CCCN2C(=O)[C@H]([C@@H](C)CC)NC(=O)[C@@H]2CSSC[C@@H]3NC(=O)[C@H](C(C)C)NC(=O)[C@H](CC(C)C)NC(=O)[C@H](CC(N)=O)NC(=O)[C@@H]4CCCN4C(=O)[C@H](CCCNC(=N)N)NC(=O)[C@H](CSSC[C@H](NC(=O)[C@@H](N)CC(=O)O)C(=O)N[C@@H](CC(C)C)C(=O)NCC(=O)N[C@@H](CC)C(=O)N[C@@H](CC(C)C)C(=O)N[C@@H](CCCNC(=N)N)C(=O)N[C@@H](CCCCN)C(=O)N2)NC(=O)[C@H](CSSC[C@@H](C(=O)N[C@@H](CCCCN)C(=O)N[C@@H](Cc2ccc(O)cc2)C(=O)N[C@H](C(=O)N[C@@H](Cc2ccccc2)C(N)=O)C(C)C)NC(=O)[C@H](Cc2c[nH]c4ccccc24)NC(=O)[C@H](CCCNC(=N)N)NC(=O)[C@H](Cc2c[nH]cn2)NC(=O)[C@H]([C@@H](C)O)NC(=O)[C@H](CCCNC(=N)N)NC(=O)[C@H](CO)NC3=O)NC(=O)[C@H](CCCCN)NC(=O)[C@H](CC(=O)O)NC1=O [compound 801] (H-DCLG[Abu]LRKCIPDK(Pent4ynoyl)DKCCRPNLVCSRTHRWCKYVF-NH2; disulfide 2-17, 9-23, 16-30)
IC50 (hNav1.7): 0.55 µM
IC50 (hNav1.5): 39.7 µM
IC50 (hNav1.3): 0.81 µM

C#CC[C@@H]1NC(=O)[C@@H]2CCCN2C(=O)[C@H]([C@@H](C)CC)NC(=O)[C@@H]2CSSC[C@@H]3NC(=O)[C@H](C(C)C)NC(=O)[C@H](CC(C)C)NC(=O)[C@H](CC(N)=O)NC(=O)[C@@H]4CCCN4C(=O)[C@H](CCCNC(=N)N)NC(=O)[C@H](CSSC[C@H](NC(=O)[C@@H](N)CC(=O)O)C(=O)N[C@@H](CC(C)C)C(=O)NCC(=O)N[C@@H](C)C(=O)N[C@@H](CC(C)C)C(=O)N[C@@H](CCCNC(=N)N)C(=O)N[C@@H](CCCCN)C(=O)N2)NC(=O)[C@H](CSSC[C@@H](C(=O)N[C@@H](CCCCN)C(=O)N[C@@H](Cc2ccc(O)cc2)C(=O)N[C@H](C(=O)N[C@@H](Cc2ccccc2)C(N)=O)C(C)C)NC(=O)[C@H](Cc2c[nH]c4ccccc24)NC(=O)[C@H](CCCNC(=N)N)NC(=O)[C@H](Cc2c[nH]cn2)NC(=O)[C@H](CC(C)C)NC(=O)[C@H](CCCNC(=N)N)NC(=O)[C@H](CO)NC3=O)NC(=O)[C@H](CCCCN)NC(=O)[C@H](CC(=O)O)NC(=O)[C@H](CC(N)=O)NC1=O [compound 802]
IC50 (hNav1.7): 0.26 µM
IC50 (hNav1.5): > 50 µM
IC50 (hNav1.3): 0.54 µM

C#CC[C@@H]1NC(=O)[C@@H]2CCCN2C(=O)[C@H]([C@@H](C)CC)NC(=O)[C@@H]2CSSC[C@@H]3NC(=O)[C@H](C(C)C)NC(=O)[C@H](CC(C)C)NC(=O)[C@H](CC(N)=O)NC(=O)[C@@H]4CCCN4C(=O)[C@H](CCCNC(=N)N)NC(=O)[C@H](CSSC[C@H](NC(=O)[C@@H](N)CC(=O)O)C(=O)N[C@@H](CC(C)C)C(=O)NCC(=O)N[C@@H](C)C(=O)N[C@@H](Cc4ccccc4)C(=O)N[C@@H](CCCNC(=N)N)C(=O)N[C@@H](CCCCN)C(=O)N2)NC(=O)[C@H](CSSC[C@@H](C(=O)N[C@@H](CCCCN)C(=O)N[C@@H](Cc2ccc(O)cc2)C(=O)N[C@H](C(=O)N[C@@H](Cc2ccccc2)C(N)=O)C(C)C)NC(=O)[C@H](Cc2c[nH]c4ccccc24)NC(=O)[C@H](CCCNC(=N)N)NC(=O)[C@H](Cc2c[nH]cn2)NC(=O)[C@H](CC(C)C)NC(=O)[C@H](CCCNC(=N)N)NC(=O)[C@H](CO)NC3=O)NC(=O)[C@H](CCCCN)NC(=O)[C@H](CC(=O)O)NC(=O)[C@H](CC(N)=O)NC1=O [compound 803]
IC50 (hNav1.7): 0.13 µM
IC50 (hNav1.5): 36.5 µM
IC50 (hNav1.3): 0.12 µM

From patent publication US9340590B2 (priority 2011, dated 2016)
